The source of these data is a melting point compilation (Tetko et al.; mined from patent text by program, amines drawn as free bases though some values may be those of a salt).

Each structure is given as a SMILES string.

By melting point is commonly meant the temperature of the solid-liquid transition. With `CNC(=S)NS(=O)(=O)c1cc(CCNC(=O)/C=C/c2cccs2)ccc1OC`, the melting point lay within 74 to 77 °C.

For `COc1cccc(N(C)C(=O)C(C)Br)c1` (configuration not stated), the melting point fell in the range of 55 to 56 °C.

Consider `CCCCn1c(=O)c2nn(S(=O)(=O)c3ccc(C(C)(C)C)cc3)cc2n(CCCC)c1=O`, for which the melting point lay within 158 to 159 °C.

`CCCCS(=O)(=O)Nc1cccc(OCc2ccc3ccccc3n2)c1`: the melting point lay within 105 to 106 °C.

The molecule `COCc1cc(-c2c(S(C)(=O)=O)ccc(C(=O)C3C(=O)CCCC3=O)c2Cl)no1` returned a melting point of 39 to 40 °C.

In the case of `O=C(C=Cc1cccc(S(=O)(=O)Nc2cccc3ccccc23)c1)NO`, the melting point was 180 °C.

`O=C(/C=C/c1ccc(O)c(O)c1)Nc1ccccc1C(=O)O` had a melting point of 204 to 206 °C.

Take `COc1ccc(C(=O)NCc2ccc(OCCN(C)C)cc2)cc1OC`: the melting point lay within 111 to 112 °C.

On to `Cc1ncccc1COc1ccc2cc(Cn3cc(CCC(=O)O)c(-c4ccccc4)c3)ccc2c1`, for which the melting point is 163 to 164 °C.

Consider `CCCCOc1cc(CCCC(=O)O)n(Cc2ccc(Cl)cc2Cl)n1`, for which the melting point lay within 60.5 to 61 °C.

The molecule `Cn1c(=O)c2c(nc(Cl)n2Cc2ccc(F)cc2)n(C)c1=O` had a melting point of 183 to 184 °C.

On to `NC(=O)C1CCN(C(=O)CNC(=O)OCc2ccccc2)CC1`, for which the melting point was in the range of 146 to 149 °C.

Regarding `COc1ccc(-c2ncn(CCC(C)(C)NCC(O)c3ccc(O)c(CO)c3)n2)cc1` (configuration not stated), the melting point was in the range of 142 to 145 °C.

For the molecule `CC1(C)N=C(NC#N)N=C(NC(=O)c2nc(Cl)c(N)nc2N)N1`, the melting point is 342 °C.

Consider `COc1cc(CC(C)NC(=O)c2ccccc2)cc2c1OC(C)(C)C2` (configuration not stated), for which the melting point was 141 to 142 °C.

In the case of `CC(=S)c1ccc(-c2ccccc2)cc1`, the melting point is 48 to 50 °C.

`CC1(C)Oc2cc([N+](=O)[O-])sc2C(N2CCCC2=O)C1O` (configuration not stated) came in with a melting point of 214 to 217 °C.

With `CC(=O)OCCCS(=O)(=O)c1ccc(S(N)(=O)=O)s1`, the melting point lay in the range of 103 to 104 °C.

`COc1cc2c(cc1OC)C(CNC(=O)N(C)O)CC2` (configuration not stated) had a melting point of 120 to 121 °C.

Molecule `COc1ccc(C(=O)Nc2c(Cl)cncc2Cl)c2c1[nH]c1ccccc12` returned a melting point greater than 250 °C.

The molecule `COc1ccccc1C(C#N)(CC1CCCCO1)Cn1cncn1` (configuration not stated) came in with a melting point of 120 to 121 °C.

For `COc1ccc(-c2csc(Nc3ccccn3)n2)cc1OC`, the melting point fell in the range of 211 to 214 °C.

With `COc1ccc(C(=O)Nc2cccnc2)c2c1oc1ccccc12`, the melting point was 226 °C.

`O=C1C=C(c2ccc(O)cc2)C(=O)N1` had a melting point of 158 to 162 °C.

Consider `COc1ccc(C[C@@H]2CCc3ncc(C)cc3C2)cc1`, for which the melting point was in the range of 46 to 48 °C.

Turning to `O=C(Cl)c1ccccc1NC(=O)c1ccccc1-c1ccccc1`, the melting point is 118 to 120 °C.

On to `COC(=O)C(C)(O[Si](C)(C)C(C)(C)C)c1ccc([N+](=O)[O-])cc1` (configuration not stated), for which the melting point was 65 to 66 °C.

Regarding `COc1ccc2[nH]c(C)cc2c1O`, the melting point was in the range of 118 to 119 °C.

`CC(C)n1c(=O)nc(-c2ccc3c(c2)OCCO3)c2cc3c(cc21)OCO3` had a melting point of 214 to 217 °C.

As to `COC(=O)C1=C(C)NC(CO)=C(C(=O)OC)C1c1ccccc1[N+](=O)[O-]` (configuration not stated), the melting point is 164 to 165 °C.

Turning to `Cc1nn(-c2cnccn2)c(-c2ccccc2)c1CC(=O)O`, the melting point turned out to be 125 °C.

`COC(=O)c1cc([N+](=O)[O-])c(-c2ccccc2)c([N+](=O)[O-])c1` showed a melting point of 148 °C.

`Nc1ccc(-n2ncnc2-c2ccc(F)cc2)cc1` displayed a melting point of 147 to 150 °C.

Turning to `CSc1ccc(F)cc1C(C)=O`, the melting point is 82 to 84.3 °C.

Turning to `Cc1ccccc1CC1(CO)CCN(C(=O)OC(C)(C)C)CC1`, the melting point was in the range of 104 to 106 °C.

On to `COc1c(C)cc(-c2[nH]c3ccccc3c2C)cc1C`, for which the melting point lay in the range of 108 to 110 °C.

On to `CC1(C)OC(=O)N(Cc2ccccc2[N+](=O)[O-])C1=O`, for which the melting point turned out to be 134 °C.

For the molecule `Cc1cccc(C)c1NC(=O)NC1(c2cccs2)CCCCC1`, the melting point was 220 to 222 °C.

Regarding `CN1C(=O)CCC1c1cncc(Br)c1` (configuration not stated), the melting point lay in the range of 85 to 87 °C.

The molecule `CCCc1cc(Cl)c(OC(=S)N(C)C)c(C(C)=O)c1OC(C)=O` had a melting point of 86 to 88 °C.

`COC(=O)NNc1cc(C)c(Cl)c2c1OC(C)C2` (configuration not stated): the melting point lay in the range of 157 to 160 °C.

As for `Cn1cc(CS(C)(=O)=O)c(=O)c2ccccc21`, the melting point lay within 200 to 201 °C.

Regarding `COc1ccc(C2=NNC(=O)CC2c2ccccc2)cc1` (configuration not stated), the melting point was in the range of 176 to 177 °C.

`CCOC(=O)/C=C/c1cn(-c2ccccc2)nc1OCc1ccc(OCc2nc(-c3ccccc3)oc2C)c(OC)c1` registered a melting point of 194 to 195 °C.

In the case of `C=CCC1C=C(c2c[nH]c(-c3ccc(F)cc3)c2-c2ccncc2)CCN1C` (configuration not stated), the melting point lay within 218 to 220 °C.

`CSc1ncc2nc(C)nc(Nc3ccc(F)c(Cl)c3)c2n1` displayed a melting point of 70 to 75 °C.

As to `O=C(CC=C(Cl)C1(Cl)OC1=O)c1ccccc1` (configuration not stated), the melting point was in the range of 121 to 122 °C.

The molecule `O=c1[nH]nc2n1-c1ccc(N3CCCC3)nc1C(c1ccccc1Cl)=NC2` yielded a melting point of 228 to 230 °C.

Molecule `CCOC(OCC)c1nc(-c2ccc(Cl)cc2)c(F)c(N=C2C=CC(=O)C=C2)c1Cl` showed a melting point of 134 to 136 °C.

For the molecule `COc1cc(OC)nc(Oc2ccnc3cc(Cl)ccc23)n1`, the melting point lay in the range of 119 to 120 °C.

As for `CCC(Oc1ccc(C2CCOCC2)cc1)C(=O)O` (configuration not stated), the melting point turned out to be 127 °C.

Take `COC(=O)C(=O)c1c[nH]c2c1ccc1c3ccccc3[nH]c12`: the melting point was greater than 290 °C.

Regarding `Cc1nc(C)c(C(O)=C(C#N)c2nn(-c3ccccc3)nc2C)s1`, the melting point lay in the range of 117 to 118 °C.

Consider `COCOc1ccc(CSc2cnn(C(C)(C)C)c(=O)c2Cl)cc1`, for which the melting point lay in the range of 50 to 54 °C.

Consider `COc1ccc(CCCC2(Br)C(=O)NC(=O)NC2=O)cc1`, for which the melting point fell in the range of 113 to 114 °C.

With `NNc1ccc(Cl)cn1`, the melting point lay within 116 to 122 °C.

In the case of `CCOC(=O)c1ccc(-c2nc(COc3ccc(COc4nn(-c5ccccc5)cc4/C=C\c4csc(CC)n4)cc3OC)c(C)o2)s1`, the melting point was in the range of 118 to 119 °C.

Regarding `Cc1c(NC(=O)CC(C)(C)C)c(C)c2c(c1-c1ccsc1)OCC2c1ccc(C(C)C)cc1` (configuration not stated), the melting point lay within 172 to 174 °C.

In turn, `CC(C)c1ccc2c(c1)C(=O)c1ccc(C(=O)O)cc1CC2` gave a melting point of 178 to 182 °C.

On to `CC(C)(C)[Si](C)(C)OCc1cccc(-c2ccc3nc(Cl)cn3c2)c1`, for which the melting point lay in the range of 120 to 123 °C.

For `Cc1ccc2c(c1)SC(c1ccc(OCCCCBr)cc1)C(=O)N2C` (configuration not stated), the melting point lay within 75 to 76 °C.

Molecule `CCCn1c(-c2ccccc2)nc2cc(C(=O)O)ccc21` came in with a melting point of 223 °C.

On to `Cc1ccc2c(c1)c(C)c(C(=O)OCc1ccccc1)n2CCC#N`, for which the melting point is 71 °C.

With `C[C@H]1[C@@H](C(C)(C)O)CCN1c1ccc(C#N)cc1C(F)(F)F`, the melting point is 98 to 100 °C.

Molecule `CC(C(=O)n1c(=O)oc2ccccc21)C1(O)CCCCC1` (configuration not stated) gave a melting point of 58 to 59 °C.

Consider `CCS(=O)(=O)Nc1ccc(F)c(N)c1`, for which the melting point was 106 to 108 °C.

`CC(C)Cn1c(=O)n(C)c(=O)c2c(SCCCO)c(C(O)c3cccc4ccccc34)sc21` (configuration not stated) gave a melting point of 100 to 105 °C.

Take `O=C(NC(CS)Cc1ccccc1)N1C=CC=CC1` (single isomer, unassigned; (+)): the melting point is 115 to 117 °C.

For the molecule `O=c1[nH]c2ccc(-c3ncc[nH]3)cc2[nH]c1=O`, the melting point is greater than 300 °C.

`CS(=O)N1CCSc2cccc(Cl)c2C1` (configuration not stated) showed a melting point of 82 to 84 °C.

As to `CC(C)(C)c1cc(C(=S)SC(C)(C)c2ccccc2)cc(C(C)(C)C)c1O`, the melting point fell in the range of 100 to 104 °C.

With `Nc1cc(NCCC2CCCCC2)nc2c1ncn2C1OC(CO)C(O)C1O` (configuration not stated), the melting point is 194 to 195 °C.

For the molecule `Nc1nc(-c2cc(Cl)ccc2Cl)nc(N2CCNCC2)n1`, the melting point was 163 to 165 °C.

`O=C1Nc2ccccc2N(C(=O)Cl)c2c1csc2Cl` yielded a melting point of 158 to 161 °C.

As to `COc1ccc2c(c1)Sc1c(cc(OC)c(OC)c1Br)N2`, the melting point lay within 223 to 225 °C.

The molecule `CSc1ncccc1C(=O)CC(=O)C1CC1` showed a melting point of 87 to 89 °C.

As for `CCn1c(Oc2cccc(N3CCC4(CC3)OCCO4)c2)nnc1[C@@H](C)NS(=O)(=O)c1ccc(Cl)c(Cl)c1`, the melting point was 174 to 179 °C.

Take `CN1CCN(C2=Nc3ccccc3Oc3sc(Br)cc32)CC1`: the melting point lay within 150 to 151 °C.

In the case of `O=C(Cc1cccs1)c1c(O)sc2ccccc12`, the melting point is 99 to 101 °C.

With `CC(C)(C)Nc1nc(Cl)c(C#N)cc1F`, the melting point lay in the range of 84 to 85 °C.

`CSc1nc(Cl)c(C(Cl)Cl)c(Cl)n1` returned a melting point of 66 °C.

As to `Cc1ccccc1C(=O)Nc1ccc(C(=O)N2CCc3cn(C)nc3-c3sccc32)cc1`, the melting point was 257 to 260 °C.

Turning to `O=C(CCc1c[nH]c2ccccc12)NCc1ccccc1`, the melting point was in the range of 73 to 75 °C.

Regarding `CCOC(=O)c1cn(CC)c2nc(N3CCN(c4ccccc4)CC3)ncc2c1=O`, the melting point is 186 °C.

For the molecule `Cc1ccc(-c2cn(C)cc(-c3ccccc3)c2=O)cc1Br`, the melting point was 168 to 170 °C.

`COc1ccc(S(=O)(=O)N(CCCN(C)C)c2ccc(Cl)cc2Cc2c(F)cccc2F)cc1OC` registered a melting point of 134 °C.

`NC(=O)c1cc(-c2nccs2)[nH]c1C(CC1CCOCC1)c1ccc(S(=O)(=O)C2CC2)cc1` (configuration not stated) showed a melting point of 241 to 243 °C.

`CC(=O)CNC(=O)Nc1cc(-c2c(-c3ccc(F)c(C)c3)nc3cccnn23)ccn1` had a melting point of 208 to 209 °C.

With `O=C(Nc1ccc(Oc2ccccc2)cc1)N1CCN(c2ncnc3ccccc23)CC1`, the melting point lay in the range of 74 to 75 °C.

Take `CS(=O)c1ccc(COc2cccc(C(=O)Nc3ccc(C#N)cc3)c2)cc1` (configuration not stated): the melting point was 174 to 175 °C.

`C/C(O)=C(\C#N)C(=O)Sc1ccc(Cl)cc1` registered a melting point of 91 to 94 °C.

In turn, `Cc1c(-c2ccccc2)c(N2CC(N(C)C)C2)c2oc(C(C)(C)C)nc2c1C#N` registered a melting point of 211 to 212 °C.
